Assay results published in patent US9345766B2, “Combination therapies comprising anti-ERBB3 agents” (Merrimack Pharmaceuticals, Inc., priority 2012, dated 2016).

Tested on: phospho-ErbB3 (pErbB3)
Format: cell-based
Conditions: incubation 15 minutes to 24 hours
Protocol: Cell lysates are probed for phospho-ErbB3 (pErbB3), and phospho-AKT (pAKT) by ELISA as described previously (Schoeberl et al, 2009) Inhibitor IC50 values are calculated by fitting dose-response data to a 4-parameter sigmoidal curve (GraphPad Prism®, GraphPad Software, Inc., La Jolla, Calif.).
Model-generated dose-response curves overlay the experimental data (FIG. 7a). […] Untreated and heregulin-stimulated cells were probed for pErbB3 and pAKT and the IC50 was calculated (FIG. 7b).
Amounts of pAKT and pErbB3 were measured by ELISA essentially as described.

## MM-111: bispecific anti-ErbB2/anti-ErbB3 antibody, scFv HSA conjugate, amino acid sequence SEQ ID NO:1
  ability to inhibit heregulin-induced ErbB3 activation relative to lapatinib: superior to lapatinib by greater than an order of magnitude
